Like-named read-outs stand apart in the source and are kept apart here. Marks after values point to notes of the source that are not given here.
Legend:
[1] = system: dual fluorophoric-labeled dsDNA; conditions: 0.8 nM dual fluorophoric-labeled dsDNA, FCS spectrometer; cited from earlier work
break light A [2] = experiment: Molecular break light assay: cleavage of break light A by enediynes and Fe^+2-dependent agents; format: biochemical; conditions: for Vmax: 37° C.; for agent concentration at maximum turnover: [A] = 32 nM; for effect of ascorbate on DNA-cleavage: addition of ascorbate; for agent concentration at maximum turnover (Vapp/[cleavage agent]): [molecular break light A] = 3.2 nM
Method: Samples were analyzed with a FluoroMax-2 spectrofluorometer equipped with DataMax for Windows (Instruments S. A., Inc.; Edison, N.J.) and the temperature controlled (30° C., unless otherwise noted) by a Haake Circulator DC10. All samples were filtered prior to analysis and analyzed via a timebase scan (λex=485 nm, λEm=517 nm) in a Suprasil quartz cuvette (10 mm path) fitted with a magnetic stirring bar in a total volume of 2 mL. […] Total cleavage of the labeled oligonucleotide, confirmed by polyacrylamide gel electrophoresis (PAGE), was defined as the maximum fluorescence emission possible under saturated cleaving conditions. Emission units were converted to the amount of labeled oligonucleotide used within a procedure, thereby equating labeled oligonucleotide degradation as a function of the emission of fluorescence.
Enediyne antibiotics calicheamicin and esperamicin at varying concentrations (0.31, 0.78, 1.6, 3.2, 15.9, and 31.7 nM) were incubated in 40 mM Tris-HCl (pH 7.5) with 3.2 nM of the calicheamicin-specific labeled molecular break light oligonucleotide (A). DNA cleavage was initiated with the addition of 1 μL 100 mM dithiothreitol (“DTT”) to produce a final concentration of 50 μM DTT, and the reaction was monitored over 10 minutes via spectrofluorometry.
Pseudo-first order kinetic parameters were utilized to determine the initial velocities at each given enediyne concentration. Specifically, graphical representation of the data was based upon equation 2 where [A]t is the concentration of cleaved oligonucleotide at a given time (t) and [A]0 is the initial concentration of oligonucleotide in the assay. Least squares analysis gave the slope (k), or rate, which was converted to V by the relationship in equation 3. The maximum velocity achieved (Vmax) was then selected from the range of concentrations examined.
ln[A]t=−kt+ln[A]0 [Equation 2]
Bleomycin, an Fe^+2-dependent nucleic acid cleavage agent, is a natural metabolite from Streptomyces verticillus. Blenoxane (a mixture containing approximately 70% bleomycin A2 and 30% bleomycin B2) was dissolved in water & optically standardized (ε291=1.7×10^4M^−1 cm^−1). Bleomycin mediated cleavage was adapted from procedures outlined by Giloni et al. J. Biol. Chem. 256: 8608-8615 (1981). Several different concentrations of bleomycin (200 nM, 100 nM, 50 nM, 25 nM, 12.5 nM, 5 nM, and 2.5 nM) were incubated in 50 mM sodium phosphate, 2.5 mM ascorbate, at pH 7.5 and 37° C. with 3.2 nM of the molecular break light A.
The reaction was initiated by the addition of 65 mM Fe(II) and monitored over 5 minutes. This protocol was repeated with the addition of 5 mM sodium ascorbate to the above conditions. Pseudo-first order kinetic parameters were utilized to determine the initial velocities at each given bleomycin concentration as previously described.
In a first assay, 3.2 nM break light A was incubated in 40 mM Tris HCl and 2.5 mM ascorbate at 37° C. and pH 7.5. Cleavage was initiated by addition of MPE/Fe(II) in a 1.2:1 molar ratio to various concentrations. Final Fe(II) concentrations were 8 μM, 4 μM, 2 μM, 1 μM, 500 nM, 250 nM, and 125 nM.
In a second assay, 32 nM molecular break light A was incubated in 40 mM Tris and 2.5 mM sodium ascorbate at pH 7.5 and 37° C. Cleavage was initiated by addition of MPE/Fe(II) in a 1.2:1 molar ratio to various concentrations. Final Fe(II) concentrations were 50 nM, 125 nM, 250 nM, 500 nM, 1 μM, and 2 μM.
In a third assay, 32 nM break light A (calicheamicin-specific molecular break light oligonucleotide) was incubated in 40 mM Tris and 2.5 mM sodium ascorbate at pH 7.5 and 37° C.

molecular break light B = experiment: BamHI steady state kinetics and sensitivity limits with break light B; format: biochemical
Method: Samples were analyzed with a FluoroMax-2 spectrofluorometer equipped with DataMax for Windows (Instruments S. A., Inc.; Edison, N.J.) and the temperature controlled (30° C., unless otherwise noted) by a Haake Circulator DC10. All samples were filtered prior to analysis and analyzed via a timebase scan (λex=485 nm, λEm=517 nm) in a Suprasil quartz cuvette (10 mm path) fitted with a magnetic stirring bar in a total volume of 2 mL. Reactions were equilibrated to the incubation temperature before initiation of DNA cleavage as was evident by a steady background emission over 10 min. Total cleavage of the labeled oligonucleotide, confirmed by polyacrylamide gel electrophoresis (PAGE), was defined as the maximum fluorescence emission possible under saturated cleaving conditions. Emission units were converted to the amount of labeled oligonucleotide used within a procedure, thereby equating labeled oligonucleotide degradation as a function of the emission of fluorescence.
Determination of BamHI (10 units/μL) specific cleavage was performed in 6 mM TrisHCl, 100 mM NaCl, 6 mM MgCl2, and 1 mM DTT, at 37° C. and pH 7.5 with 3.2 nM of molecular break light B (FIG. 2B) and varying amounts of BamHI-specific oligonucleotide lacking the fluorophore and quenching moieties. Total substrate concentrations (including break light) were as follows: 389 nM, 196 nM, 81 nM, 42 nM, 11 nM, 7.5 nM, and 3.4 nM.
The reaction was initiated with 10 U BamHI enzyme and monitored via spectrofluorometry over a time course of fifteen minutes. The initial rate of DNA cleavage was determined from data within the first 100 seconds of initiation which was then adjusted according to equation 1. These adjusted values were utilized for the reciprocal plot from which the Michaelis-Menten kinetic parameters were determined.
Vact=Vobs([Sact]/[S*]) [Equation 1]
The steady-state kinetic parameters for a commercially available BamHI were determined. The dependence of BamHI hydrolysis on substrate concentration was investigated using mixtures of a fixed amount of molecular break light B and varying amounts of an analogous non-labeled oligonucleotide (lacking both FAM and DABCYL) over a wide substrate concentration range. The apparent competitive inhibition observed due to phenomenon of “carrier dilution” was corrected to give the appropriate kinetic parameters. See, e.g., Roy, et al. (1994).
The observed velocity (Vapp) is related to the actual velocity (Vact) by equation [I] where [Sact] and [S*] are the total substrate concentration and B concentration, respectively. The reciprocal plot after correction for this “carrier dilution” phenomenon is illustrated in FIG. 4b.
A recent fluorescence correlation spectroscopy (FCS) assay for the restriction endonuclease EcoRI using 0.8 nM of dual fluorophoric-labeled dsDNA and a highly specialized FCS spectrometer, reported a detection limit of 1.6 pM EcoRI. Kettling, U., et al. (1998). Under the conditions containing even slightly less oligonucleotide (0.68 nM molecular break light), cleavage was easily detectable to 3.7 pM BamHI. […] This assay was performed undert the same conditions as the other assays in this Example.

break light A [3] = experiment: BamHI / DNaseI digestion of break light A (proof of principle); format: biochemical; conditions: 3.2 nM break light A, 37° C.; 100 U BamHI or 10 U DNaseI
Method: (§1) The cleavage of molecular break light probes A and B by BamHI was investigated. In a first assay, break light A and break light B were each incubated with 100 U BamHI. As a control, break light B was also incubated without enzyme. The incubations occurred at 37° C. in a solution containing 10 mM TrisHCl, 50 mM NaCl, 10 mM MgCl2, and 1 mM DTT at pH 7.9.
(§2) In a second assay, break light A and break light B were each incubated with 10 U DnaseI. As a control, break light A was also incubated without enzyme. The incubations occurred at 37° C. in a solution containing 40 mM Tris HCl, 10 mM MgSO4, and 1 mM CaCl2 at pH 8.0.

break light B = experiment: BamHI / DNaseI digestion of break light B (proof of principle); format: biochemical
Method: as §1, §2

[4] = system: oligonucleotide substrate; conditions: previously reported values for BamHI; cited from earlier work
[5] = [DNA]total = 3.2 nM, MPE as common agent

Molecule | Turnover (Vmax/[Agent]) (break light A [2]; [DNA]total = 3.2 nM) | Vmax (break light A [2]; [DNA]total = 3.2 nM) | Comparison to EDTA (fold enhancement over EDTA turnover) (break light A [2]; [5]) | agent concentration at maximum turnover (break light A [2]) | Comparison to EDTA (fold enhancement over EDTA turnover) (break light A [2]; [DNA]total = 32 nM) | Turnover (Vmax/[Agent]) (break light A [2]; [DNA]total = 32 nM) | Vmax (break light A [2]; [DNA]total = 32 nM) | effect of ascorbate on DNA-cleavage (break light A [2]) | agent concentration at maximum turnover (Vapp/[cleavage agent]) (break light A [2]) | further results
EcoRI: restriction endonuclease | – | – | – | – | – | – | – | – | – | detection limit [1]: 1.6 pM
esperamicin A1 | 0.009 s⁻¹ | 0.007 ± 0.001^d nM sec^−1 | 6.1 × 10^5 fold | – | – | – | – | – | – | maximum fluorescence upon cleavage, compared with DNaseI (break light A [2]; 3.2 nM break light A, excess DTT): identical to that observed with DNaseI; enhancement of cleavage efficiency over bleomycin (break light A [2]; from Table 1): ~10 fold
O=C([O-])CN(CCN(CC(=O)[O-])CC(=O)[O-])CC(=O)[O-].[Fe+2].[H+].[H+] [EDTA, Fe^+2-EDTA] | – | – | – | ~1.3 µM | 1.0 fold | 1.5e-06 s⁻¹ | 0.002 ± 0.001^e nM sec^−1 | critical for efficient DNA-cleavage | – | –
methidiumpropyl-Fe^+2-EDTA [Methidiumpropyl-EDTA] | 2.4e-05 s⁻¹ | 0.003 ± 0.001^d nM sec^−1 | 1.6 × 10^3 fold | ~0.05 µM | 1.6 × 10^3 fold | 0.002 s⁻¹ | 0.118 ± 0.004^e nM sec^−1 | critical for efficient DNA-cleavage | 125 nM | enhancement of cleavage efficiency in comparison to Fe^+2-EDTA (break light A [2]; from Table 1): ~10^3 fold
bleomycin | 0.001 s⁻¹ | 0.009 ± 0.001^d nM sec^−1 | 6.8 × 10^4 fold | – | – | – | – | did not affect | 2.5 nM | detection of agent by the assay (sensitivity range) (break light A [2]; 3.2 nM break light A, conditions described): nM range; additional increase of cleavage efficiency over MPE (break light A [2]; from Table 1): 10 fold
BamHI: restriction endonuclease, commercially available (protein, UniProt P23940 1-213, looked up) Type II restriction enzyme …: MEVEKEFITDEAKELLSKDKLIQQAYNEVKTSICSPIWPATSKTFTINNTEKNCNGVVPIKELCYTLLEDTYNWYREKPLDILKLEKKKGGPIDVYKEFIENSELKRVGMEFETGNISSAHRSMNKLLLGLKHGEIDLAIILMPIKQLAYYLTDRVTNFEELEPYFELTEGQPFIFIGFNAEAYNSNVPLIPKGSDGMSKRSIKKWKDKVENK | – | – | – | – | – | – | – | – | – | detection limit (molecular break light B): 0.12 pM; detection limit (cleavage easily detectable to) (molecular break light B; 0.68 nM molecular break light): 3.7 pM; Vmax (molecular break light B; 10 U BamHI, 3.2 nM break light B plus non-labeled oligonucleotide, 37° C., pH 7.5): 0.024 ± 0.001 nM/s; Km (molecular break light B; 10 U BamHI, break light B plus non-labeled oligonucleotide, 37° C., pH 7.5): 8.9 ± 0.5 nM; Comparison to EDTA (fold enhancement over EDTA turnover) (molecular break light B; BamHI, break light B): 4.8 × 10^5 fold; Turnover (Vmax/[Agent]; also known as kcat) (molecular break light B; BamHI, break light B): 0.007^c sec^−1; detection limit (molecular break light B; molecular break light concentration 34 nM): 0.12 pM; change in fluorescence intensity over time (break light A [3]): no change; change in fluorescence intensity over time (break light B; 3.2 nM break light B, 37° C., 100 U BamHI or 10 U DNaseI): increase of fluorescence; fluorescence maximum intensity upon complete cleavage, relative to DNaseI (break light B; same concentration of molecular break light): 75%; Km [4]: 0.4 nM; V max, previously reported [4]: 0.009 nM/s

Source: US20020187484A1, “Molecular break lights probes for detecting nucleotide cleavage” (priority 2000, published 2002)
